Paper PMC9143880, “Improving Antimicrobial Activity and Physico-Chemical Properties by Isosteric Replacement of 2-Aminothiazole with 2-Aminooxazole” (Pharmaceuticals, 2022)
pIC50: −log10 of the molar value. In brackets after ≈: the same amount, converted by molar mass. Read-outs that look alike come from different tables or passages of the source.

Tests used:
[1] = test system: Staphylococcus epidermidis CCM 4418 (ATCC 12228); assay: Antibacterial microdilution broth (EUCAST); format: cell-based; details: Staphylococcus epidermidis; 24h incubation; read-out: MIC SE
[2] = test system: Lichtheimia corymbifera CCM 8077; assay: Antifungal microdilution broth (EUCAST); details: Lichtheimia corymbifera, CCM8077, 24 h, read-out: MIC LC
[3] = test system: Candida parapsilosis CCM 8260 (ATCC 22019); assay: Antifungal microdilution broth (EUCAST); details: Lodderomyces parapsilosis, 24 h, read-out: MIC CP
[4] = test system: Candida albicans CCM 8320 (ATCC 24433); assay: Antifungal microdilution broth (EUCAST); details: Candida albicans, 24 h, read-out: MIC CA
[5] = test system: Candida krusei CCM 8271 (ATCC 6258); assay: Antifungal microdilution broth (EUCAST); details: Pichia kudriavzevii, 24 h, read-out: MIC CK
[6] = test system: M. smegmatis DSM 43465 (ATCC 607); assay: Antimycobacterial MIC, microdilution broth / resazurin; format: cell-based; details: Mycolicibacterium smegmatis; resazurin after 48 h; read-out: MIC M. smegmatis
[7] = test system: Enterococcus faecalis CCM 4224 (ATCC 29212); assay: Antibacterial microdilution broth (EUCAST); format: cell-based; details: Enterococcus faecalis; 24h incubation; read-out: MIC EF
[8] = test system: Staphylococcus aureus subsp. aureus (MRSA) CCM 4750 (ATCC 43300); assay: Antibacterial microdilution broth (EUCAST); format: cell-based; details: Staphylococcus aureus; 24h incubation; read-out: MIC MRSA
[9] = test system: Staphylococcus aureus subsp. aureus CCM 4223 (ATCC 29213); assay: Antibacterial microdilution broth (EUCAST); format: cell-based; details: Staphylococcus aureus; 24h incubation; read-out: MIC SA
[10] = RP-UHPLC lipophilicity parameter log k’w; format: physicochemical; details: for log k’w: RP-UHPLC, acetonitrile/water, log k extrapolated to 0% acetonitrile; for logkw: experimental lipophilicity parameter
Excerpt: Lipophilicity and water solubility of the drug candidates are important parameters as they are often directly related to their ADME properties in the organism. Lipophilicity is usually expressed as the logarithm of the partition coefficient in n-octanol/water (log P). Due to its laborious determination, especially in the HTS screening, other experimental methods such as RP-HPLC log k’w or purely computational approaches such as Clog P were proposed and have been established as reasonable estimators of true lipophilicity. To investigate the changes in lipophilicity upon introduction of oxazole in the title compounds, we determined the log k’w of all derivatives and compared respective values among the pairs.
The log k of the synthesized compounds was measured using the same instrument (single measurement per concentration), software, and column as was used in the purity evaluation. Working solutions were diluted as described above for purity determination. The log k parameter was calculated after the UHPLC measurements using isocratic mode with mobile phase acetonitrile (B)/water (A) in a set of concentrations of 40, 45, 50% and 20, 30, 40% B for subtype I and subtype II, respectively.

[11] = test system: Pseudomonas aeruginosa CCM 3955 (ATCC 27853); assay: Antibacterial microdilution broth (EUCAST); format: cell-based; details: Pseudomonas aeruginosa; 72h incubation; read-out: MIC PA
[12] = test system: Aspergillus fumigatus ATCC 204305; assay: Antifungal microdilution broth (EUCAST); details: Aspergillus fumigatus, ATCC204305, 24 h, read-out: MIC AF
[13] = test system: Mycobacterium tuberculosis H37Ra ITM-M006710 (ATCC 9431); assay: Antimycobacterial MIC, microdilution broth / Alamar Blue (resazurin); format: cell-based; details: Mycobacterium tuberculosis
[14] = test system: Acinetobacter baumannii DSM 30007 (ATCC 19606); assay: Antibacterial microdilution broth (EUCAST); format: cell-based; details: Acinetobacter baumannii; 24h incubation; read-out: MIC AB
[15] = test system: M. avium DSM 44156 (ATCC 25291); assay: Antimycobacterial MIC, microdilution broth / resazurin; format: cell-based, Mycobacterium avium; details: Mycobacterium avium; resazurin after 96 h; read-out: MIC M. avium
[16] = test system: Candida tropicalis CCM 8264 (ATCC 750); assay: Antifungal microdilution broth (EUCAST); details: Candida tropicalis, 24 h, read-out: MIC CT
[17] = test system: M. kansasii DSM 44162 (ATCC 12478); assay: Antimycobacterial MIC, microdilution broth / resazurin; format: cell-based; details: Mycobacterium kansasii; resazurin after 96 h; read-out: MIC M. kansasii
HepG2 cells = assay: HepG2 cytotoxicity screening (CellTiter 96); format: cell-based, human; details: for pIC50: Homo sapiens, HepG2, 24 h, 24 h incubation, CellTiter 96, * above highest tested concentration, ** limited by insolubility in medium; for SI: SI = IC50 (µM) HepG2 / MICH37Ra (µM)
[18] = test system: Escherichia coli CCM 3954 (ATCC 25922); assay: Antibacterial microdilution broth (EUCAST); format: cell-based; details: Escherichia coli; 24h incubation; read-out: MIC EC
[19] = test system: M. aurum DSM 43999 (ATCC 23366); assay: Antimycobacterial MIC, microdilution broth / resazurin; format: cell-based; details: Mycolicibacterium aurum; resazurin after 72 h; read-out: MIC M. aurum
[20] = test system: Aspergillus flavus CCM 8363; assay: Antifungal microdilution broth (EUCAST); details: Aspergillus flavus, CCM8363, 24 h, read-out: MIC AFla
[21] = test system: Trichophyton interdigitale CCM 8377 (ATCC 9533); assay: Antifungal microdilution broth (EUCAST); details: Trichophyton interdigitale, 72 h, read-out: MIC TI
[22] = 120 h, Middlebrook 7H9, resazurin after 120 h, read-out: Mtb H37Ra MIC
[23] = recalculated from µg/mL, read-out: MICH37Ra

Structure (SMILES)	MIC [1] [µM]	MIC [2] [µM]	MIC [3] [µM]	MIC [4] [µM]	MIC [5] [µM]	MIC [6] [µg/mL]	MIC [7] [µM]	MIC [8] [µM]	MIC [9] [µM]	log k’w [10]	logkw [10]	MIC [11] [µM]	MIC [12] [µM]	MIC [13, 22] [µg/mL]	MIC [14] [µM]	MIC [15] [µg/mL]	MIC [16] [µM]	MIC [17] [µg/mL]	melting point [°C]	MIC [18] [µM]	also measured
O=C(Nc1nccs1)c1ccncc1 [Compound 3a]	> 500	> 500	> 500	> 500	> 500	≥ 500	> 500	> 500	> 500	1.306	1.306	> 500	> 500	250	> 500	≥ 500	> 500	250 (≈ 1220 µM)	194 to 195	> 500	pIC50 (HepG2 cells): < 3.00; MIC [19]: ≥ 500 µg/mL; MIC [20]: > 500 µM; MIC [21]: > 500 µM
Cc1cncc(C(=O)Nc2ncco2)c1 [Compound 4b]	500 (≈ 102 µg/mL)	> 500	> 500	> 500	> 500	≥ 500	> 500	500 (≈ 102 µg/mL)	500 (≈ 102 µg/mL)	0.888	0.8881	> 500	> 500	7.81	500 (≈ 102 µg/mL)	125 (≈ 615 µM)	> 500	62.5 (≈ 308 µM)	171 to 175	> 500	MIC [13, 23]: 38.4 µM; pIC50 (HepG2 cells): < 3.00; SI (HepG2 cells): >26.0; MIC [19]: 31.2 µg/mL (≈ 154 µM); MIC [20]: > 500 µM; MIC [21]: > 500 µM
Cc1cc(C(=O)Nc2ncco2)ccn1 [Compound 5b]	> 500	> 125	> 125	> 125	> 125	250 (≈ 1230 µM)	> 500	> 500	> 500	0.714	0.714	> 500	> 125	3.91	> 500	62.5 (≈ 308 µM)	> 125	31.2 (≈ 154 µM)	149 to 152	> 500	MIC [13, 23]: 19.2 µM; pIC50 (HepG2 cells): < 3.00; SI (HepG2 cells): >52.0; MIC [19]: 15.6 µg/mL (≈ 76.9 µM); MIC [20]: > 125 µM; MIC [21]: > 125 µM
O=C(Nc1nccs1)c1cnc(Cl)cn1 [Compound 9a]	> 500	> 500	> 500	> 500	> 500	≥ 500	> 500	> 500	> 500	1.941	1.941	> 500	500 (≈ 120 µg/mL)	31.2	> 500	15.6 (≈ 64.9 µM)	> 500	< 3.91	197 to 200	> 500	MIC [19]: ≥ 500 µg/mL; MIC [20]: 500 µM (≈ 120 µg/mL); MIC [21]: > 500 µM
